Assays:
Format in all cases: in vivo
[1] = system: corn planthopper (Peregrinus maidis (Ashmead)); assay: whole plant or invertebrate; settings: Peregrinus maidis, 144 h, 6 days; for mortality at 50 ppm: sprayed at 50 ppm; for mortality at 250 ppm: sprayed at 250 ppm; for mortality at 10 ppm: sprayed at 10 ppm
Method: (§1) Test compounds were formulated using a solution containing 10% acetone, […] and 300 ppm Activator 909 non-ionic surfactant (Loveland Products, Loveland, Colorado, USA). The formulated compounds were applied in 1 mL of liquid through an atomizer nozzle positioned 1.27 cm (0.5 inches) above the top of each test unit. Test compounds were sprayed at the rates indicated, and each test was replicated three times.
For evaluating control of corn planthopper (Peregrinus maidis (Ashmead)) through contact and/or systemic means, the test unit consisted of a small open container with a 3-4-day-old corn (maize) plant inside. White sand was added to the top of the soil prior to application of the test compound.
Test compounds were formulated and sprayed at 250 and/or 50 ppm and/or 10 ppm. After spraying of the formulated test compound, the test units were allowed to dry for 1 h before they were post-infested with ˜15-20 nymphs (18-to-21-day-old). A black, screened cap was placed on the top of each test unit, and the test units were held for 6 days in a growth chamber at 22-24° C. and 50-70% relative humidity. Each test unit was then visually assessed for insect mortality.

[2] = system: green peach aphid (Myzus persicae (Sulzer)); assay: Test D: control of green peach aphid on radish plant, spray; settings: Myzus persicae, 144 h, 6 days; for mortality at 50 ppm: sprayed at 50 ppm; for mortality at 250 ppm: sprayed at 250 ppm
Method: as §1
For evaluating control of green peach aphid (Myzus persicae (Sulzer)) through contact and/or systemic means, the test unit consisted of a small open container with a 12-15-day-old radish plant inside. This was pre-infested by placing on a leaf of the test plant 30-40 aphids on a piece of leaf excised from a culture plant (cut-leaf method). The aphids moved onto the test plant as the leaf piece desiccated. After pre-infestation, the soil of the test unit was covered with a layer of sand.
[…] After spraying of the formulated test compound, each test unit was allowed to dry for 1 hour and then a black, screened cap was placed on top. The test units were held for 6 days in a growth chamber at 19-21° C. and 50-70% relative humidity. Each test unit was then visually assessed for insect mortality.

[3] = system: cotton melon aphid (Aphis gossypii (Glover)); assay: whole plant or invertebrate; settings: Aphis gossypii, 144 h, 6 days; for mortality at 250 ppm: sprayed at 250 ppm; for mortality at 50 ppm: sprayed at 50 ppm
Method: as §1
[…] This was pre-infested with 30-40 insects on a piece of leaf according to the cut-leaf method, and the soil of the test unit was covered with a layer of sand.
Test compounds were formulated and sprayed at 250 and/or 50 ppm. After spraying, the test units were maintained in a growth chamber for 6 days at 19° C. and 70% relative humidity. Each test unit was then visually assessed for insect mortality.

[4] = system: sweetpotato whitefly (Bemisia tabaci (Gennadius)); assay: Test F: control of sweetpotato whitefly on cotton plant, spray; settings: 312 h, 13 days; for mortality at 250 ppm: sprayed at 250 ppm; for mortality at 50 ppm: sprayed at 50 ppm
Method: as §1
For evaluating control of the sweetpotato whitefly (Bemisia tabaci (Gennadius)) through contact and/or systemic means, the test unit consisted of a small open container with a 12-14-day-old cotton plant inside. Prior to the spray application, both cotyledons were removed from the plant, leaving one true leaf for the assay. Adult whiteflies were allowed to lay eggs on the plant and then were removed from the test unit. Cotton plants infested with at least 15 eggs were submitted to the test for spraying.
Test compounds were formulated and sprayed at 250 and/or 50 ppm. After spraying, the test units were allowed to dry for 1 hour. The cylinders were then removed, and the units were taken to a growth chamber and held for 13 days at 28° C. and 50-70% relative humidity. Each test unit was then visually assessed for insect mortality.

SMILES	mortality at 50 ppm [1]	mortality at 250 ppm [1]	mortality at 50 ppm [2]	mortality at 250 ppm [2]	mortality at 250 ppm [3]	mortality at 50 ppm [3]	mortality at 250 ppm [4]	mortality at 10 ppm [1]	mortality at 50 ppm [4]
Fc1cncc(-n2cncn2)c1C(F)c1ccc(SC(F)(F)F)cc1 (centres unmarked) [Compound 2]	≥ 80%	≥ 80%	≥ 80%	≥ 80%	≥ 80%				
Cc1ccn(-c2cncc(F)c2C(F)c2ccc(SC(F)(F)F)cc2)n1 (centres unmarked) [Compound 5]	≥ 80%	≥ 80%		≥ 80%					
FC(c1ccc(OC(F)(F)F)cc1)c1ccncc1-n1cncn1 (centres unmarked) [Compound 12]	≥ 80%	≥ 80%		≥ 80%	≥ 80%	≥ 80%	≥ 70%		
FC(c1ccc(OC(F)(F)F)cc1)c1c(Cl)cncc1-n1cncn1 (centres unmarked) [Compound 15]	≥ 80%	≥ 80%	≥ 80%	≥ 80%			≥ 70%		
COC(c1ccc(OC(F)(F)F)cc1)c1c(Cl)cncc1-n1nccn1 (centres unmarked) [Compound 16]	≥ 80%	≥ 80%	≥ 80%	≥ 80%	≥ 80%	≥ 80%			
FC(c1ccc(OC(F)(F)F)cc1)c1c(Br)cncc1-n1nccn1 (centres unmarked) [Compound 17]	≥ 80%	≥ 80%	≥ 80%	≥ 80%	≥ 80%	≥ 80%	≥ 70%		
Cc1cncc(-n2nccn2)c1C(F)c1ccc(OC(F)(F)F)cc1 (centres unmarked) [Compound 38]	≥ 80%	≥ 80%		≥ 80%	≥ 80%	≥ 80%		≥ 80%	
O=S(=O)(c1ccc(C(F)c2c(F)cncc2-n2nccn2)cc1)C(F)(F)F (centres unmarked) [Compound 54]			≥ 80%	≥ 80%	≥ 80%	≥ 80%			
[O-][S+](c1ccc(C(F)c2c(F)cncc2-n2nccn2)cc1)C(F)(F)F (centres unmarked) [Compound 67, 3-fluoro-4-[fluoro-[4-(trifluoromethylsulfinyl)phenyl]methyl]-5-(triazol-2-yl)pyridine]	≥ 80%	≥ 80%	≥ 80%	≥ 80%	≥ 80%	≥ 80%	≥ 70%		
FC(c1ccc(SC(F)(F)F)cc1)c1ccncc1-n1ccnn1 (centres unmarked) [Compound 68]				≥ 80%	≥ 80%	≥ 80%			
COC(c1ccc(SC(F)(F)F)cc1)c1c(F)cncc1-n1cccn1 (centres unmarked) [Compound 70]	≥ 80%	≥ 80%		≥ 80%	≥ 80%	≥ 80%		≥ 80%	
COC(c1ccc(SC(F)(F)F)cc1)c1c(F)cncc1-n1cncn1 (centres unmarked) [Compound 71]			≥ 80%	≥ 80%	≥ 80%	≥ 80%	≥ 70%		≥ 70%
COC(c1ccc([S+]([O-])C(F)(F)F)cc1)c1c(F)cncc1-n1cccn1 (centres unmarked) [Compound 72]				≥ 80%	≥ 80%				
COC(c1ccc([S+]([O-])C(F)(F)F)cc1)c1c(F)cncc1-n1cncn1 (centres unmarked) [Compound 74]			≥ 80%	≥ 80%	≥ 80%	≥ 80%			
Fc1cncc(-c2nccs2)c1C(F)c1ccc(SC(F)(F)F)cc1 (centres unmarked) [Compound 77]	≥ 80%	≥ 80%		≥ 80%	≥ 80%				
COC(c1ccc(SC(F)(F)F)cc1)c1c(F)cncc1-c1ncon1 (centres unmarked) [Compound 83, 3-[5-fluoro-4-[methoxy-[4-(trifluoromethylsulfanyl)phenyl]methyl]-3-pyridyl]-1,2,4-oxadiazole]	≥ 80%	≥ 80%		≥ 80%	≥ 80%	≥ 80%			
FC(c1ccc(SC(F)(F)F)cc1)c1c(Br)cncc1-n1nccn1 (centres unmarked) [Compound 86]	≥ 80%	≥ 80%	≥ 80%	≥ 80%	≥ 80%	≥ 80%			
FC(c1ccc(SC(F)(F)F)cc1)c1c(Br)cncc1-n1ccnn1 (centres unmarked) [Compound 87]				≥ 80%					
FC(c1ccc(OC(F)(F)F)cc1)c1c(Cl)cncc1-n1cccn1 (centres unmarked) [Compound 88]	≥ 80%	≥ 80%		≥ 80%	≥ 80%	≥ 80%	≥ 70%		≥ 70%
[O-][S+](c1ccc(C(F)c2c(Cl)cncc2-n2nccn2)cc1)C(F)(F)F (centres unmarked) [Compound 90]	≥ 80%	≥ 80%	≥ 80%	≥ 80%	≥ 80%	≥ 80%	≥ 70%		≥ 70%
O=S(=O)(c1ccc(C(F)c2c(Cl)cncc2-n2nccn2)cc1)C(F)(F)F (centres unmarked) [Compound 91]			≥ 80%	≥ 80%	≥ 80%	≥ 80%	≥ 70%		≥ 70%
FC(c1ccc(SC(F)(F)F)cc1)c1c(I)cncc1-n1nccn1 (centres unmarked) [Compound 95]	≥ 80%	≥ 80%	≥ 80%	≥ 80%	≥ 80%	≥ 80%	≥ 70%	≥ 80%	≥ 70%
Fc1cncc(C2OCCO2)c1C(F)c1ccc(SC(F)(F)F)cc1 (centres unmarked) [Compound 96]	≥ 80%	≥ 80%		≥ 80%	≥ 80%	≥ 80%		≥ 80%	
[O-][S+](c1ccc(C(F)c2c(I)cncc2-n2nccn2)cc1)C(F)(F)F (centres unmarked) [Compound 97]				≥ 80%	≥ 80%	≥ 80%			
CC(C)(C)c1ccc(C(F)c2c(Br)cncc2-n2nccn2)cc1 (centres unmarked) [Compound 108]	≥ 80%	≥ 80%					≥ 70%		≥ 70%
FC(c1ccc(Br)cc1)c1c(Cl)cncc1-n1nccn1 (centres unmarked) [Compound 109]	≥ 80%	≥ 80%			≥ 80%	≥ 80%	≥ 70%	≥ 80%	≥ 70%
COC(c1ccc(Br)cc1)c1c(F)cncc1-n1nccn1 (centres unmarked) [Compound 117]							≥ 70%		≥ 70%
COC(c1ccc(SC(F)(F)F)cc1)c1c(Cl)cncc1-n1nccn1 (centres unmarked) [Compound 127]	≥ 80%	≥ 80%	≥ 80%	≥ 80%	≥ 80%	≥ 80%	≥ 70%	≥ 80%	≥ 70%
COC(c1ccc(SC(F)(F)F)cc1)c1c(Br)cncc1-n1ccnn1 (centres unmarked) [Compound 134]							≥ 70%		≥ 70%

— patent US12568969B2, “Pyridine compounds for controlling invertebrate pests” (FMC Corporation, priority 2020, dated 2026)
